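Tested at 5 concentrations; 48 h exposure; 96-well plates; endpoints linearly interpolated, else capped at highest concentration. Abbreviation: GI50, concentration required for 50% inhibition of growth.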 Active and inactive are the calls of the source. No stated cut-off is given here; in the data, active = GI50 up to about 1.1 µM and inactive = higher.
Assays:
Test in all cases: NCI-60 cell line screen, 48 h
SN12C = tested on: SN12C
RXF 393 = tested on: RXF 393
CCRF-CEM = tested on: CCRF-CEM
ACHN = tested on: ACHN
A498 = tested on: A498
SF-268 = tested on: SF-268
HCT-15 = tested on: HCT-15
MOLT-4 = tested on: MOLT-4
OVCAR-8 = tested on: OVCAR-8
NCI-H460 = tested on: NCI-H460
SNB-75 = tested on: SNB-75
NCI-H23 = tested on: NCI-H23
SK-MEL-2 = tested on: SK-MEL-2
M14 = tested on: M14
HOP-62 = tested on: HOP-62
786-0 = tested on: 786-0
SK-OV-3 = tested on: SK-OV-3

Row | SMILES | GI50 (SN12C) | GI50 (RXF 393) | GI50 (CCRF-CEM) | GI50 (ACHN) | GI50 (A498) | GI50 (SF-268) | GI50 (HCT-15) [µM] | GI50 (MOLT-4) | GI50 (OVCAR-8) | GI50 (NCI-H460) | GI50 (SNB-75) | GI50 (NCI-H23) | GI50 (SK-MEL-2) | GI50 (M14) | GI50 (HOP-62) | GI50 (786-0) | GI50 (SK-OV-3)
1 | CC(=O)CCn1[nH]c(=O)c(Cl)c(Cl)c1=O | > 100 µM (inactive) | > 100 µM (inactive) | > 100 µM (inactive) | > 100 µM (inactive) | > 100 µM (inactive) | > 100 µM (inactive) | > 100 | > 100 µM (inactive) | > 100 µM (inactive) | > 100 µM (inactive) | > 100 µM (inactive) | > 100 µM (inactive) | > 100 µM (inactive) | > 100 µM (inactive) | > 100 µM (inactive) | > 100 µM (inactive) | 
2 | O=[N+]([O-])c1ccc2nc3ccscc-3c2c1 |  |  | 5 µM (inactive) | 13.6 µM (inactive) | 8.36 µM (inactive) | 14.7 µM (inactive) | 15.2 | 5.87 µM (inactive) |  | 14.1 µM (inactive) |  | 11.7 µM (inactive) | 6.75 µM (inactive) | 16 µM (inactive) | 17.9 µM (inactive) | 19.5 µM (inactive) | 30.7 µM (inactive)
3 | O=C(O)[C@@H]1CCCC[C@@H]1C(=O)N(C1CCCCC1)C1CCCCC1 | > 100 µM (inactive) |  | > 100 µM (inactive) | > 100 µM (inactive) | > 100 µM (inactive) | > 100 µM (inactive) | > 100 | > 100 µM (inactive) | > 100 µM (inactive) | > 100 µM (inactive) | > 100 µM (inactive) | > 100 µM (inactive) | > 100 µM (inactive) | > 100 µM (inactive) | > 100 µM (inactive) | > 100 µM (inactive) | > 100 µM (inactive)
4 | CCOC(=O)C(=O)Nc1c(C)cccc1CC | > 100 µM (inactive) | > 100 µM (inactive) | > 100 µM (inactive) | > 100 µM (inactive) |  | > 100 µM (inactive) |  | > 100 µM (inactive) | > 100 µM (inactive) | > 100 µM (inactive) |  | > 100 µM (inactive) | > 100 µM (inactive) | > 100 µM (inactive) | > 100 µM (inactive) | > 100 µM (inactive) | > 100 µM (inactive)
5 | N#CN1CCC=C(c2cc3ccccc3[nH]2)C1 | 356 µM (inactive) | 256 µM (inactive) | 188 µM (inactive) | 272 µM (inactive) |  | 210 µM (inactive) | 370 | 230 µM (inactive) | 300 µM (inactive) | > 448 µM (inactive) |  | 182 µM (inactive) | 279 µM (inactive) |  | > 448 µM (inactive) | > 448 µM (inactive) | > 448 µM (inactive)
6 | CC1(C)C(=O)C(C)(C)C1=NNC(N)=S | > 100 µM (inactive) | > 100 µM (inactive) |  | > 100 µM (inactive) |  | > 100 µM (inactive) | > 100 | > 100 µM (inactive) | > 100 µM (inactive) | > 100 µM (inactive) | > 100 µM (inactive) | > 100 µM (inactive) |  | > 100 µM (inactive) | > 100 µM (inactive) | > 100 µM (inactive) | > 100 µM (inactive)
7 | NC(=S)N/N=C(\CC1OC(=O)c2ccccc21)c1ccc(Cl)cc1 (centres undefined) | 35.2 µM (inactive) | 25.1 µM (inactive) |  | 56.1 µM (inactive) |  | 36.8 µM (inactive) | 39.8 | 61.5 µM (inactive) | 18 µM (inactive) | 34.3 µM (inactive) | 49.2 µM (inactive) | 25.2 µM (inactive) |  | 43.2 µM (inactive) | 23.2 µM (inactive) | 43.4 µM (inactive) | 42.8 µM (inactive)
8 | COc1cc(C(=O)CC2(O)C(=O)Nc3c(Cl)cc(Cl)cc32)ccc1O (centres undefined) | > 100 µM (inactive) | 27.5 µM (inactive) | 36.6 µM (inactive) | 57.1 µM (inactive) |  | 43.8 µM (inactive) | 64 | 26.3 µM (inactive) | 63 µM (inactive) | 75.7 µM (inactive) | 24.2 µM (inactive) | 59.2 µM (inactive) | 87.1 µM (inactive) | 66.7 µM (inactive) | 37.5 µM (inactive) | > 100 µM (inactive) | 14.9 µM (inactive)
9 | Cc1ccc(S(=O)(=O)C(C#N)c2nc3ccccc3nc2-n2ccnc2)cc1 (centres undefined) | > 100 µM (inactive) |  | > 100 µM (inactive) | > 100 µM (inactive) |  | > 100 µM (inactive) | > 100 | > 100 µM (inactive) | > 100 µM (inactive) | > 100 µM (inactive) | > 100 µM (inactive) | > 100 µM (inactive) | > 100 µM (inactive) | > 100 µM (inactive) | > 100 µM (inactive) | > 100 µM (inactive) | > 100 µM (inactive)
10 | COCOCC/C=C/C=O | > 100 µM (inactive) | > 100 µM (inactive) | > 100 µM (inactive) | > 100 µM (inactive) | > 100 µM (inactive) | > 100 µM (inactive) | > 100 | > 100 µM (inactive) | > 100 µM (inactive) | > 100 µM (inactive) | > 100 µM (inactive) | > 100 µM (inactive) | > 100 µM (inactive) | > 100 µM (inactive) |  | > 100 µM (inactive) | > 100 µM (inactive)
11 | CN(C)CC(C)(C)C(=O)/C=C/c1ccccc1 | 13.3 µM (inactive) | 11.9 µM (inactive) | 3.39 µM (inactive) | 17.9 µM (inactive) | 17 µM (inactive) |  | 12.6 | 14.4 µM (inactive) | 18 µM (inactive) | 13.9 µM (inactive) | 16.1 µM (inactive) | 19.9 µM (inactive) |  | 13.8 µM (inactive) | 28.4 µM (inactive) | 15.4 µM (inactive) | 
12 | COc1ccccc1NC(=O)C(CC(C(=O)Nc1ccccc1OC)/C(C)=N/Nc1ccc([N+](=O)[O-])cc1[N+](=O)[O-])/C(C)=N/Nc1ccc([N+](=O)[O-])cc1[N+](=O)[O-] (centres undefined) | > 100 µM (inactive) |  | 63.5 µM (inactive) | > 86.1 µM (inactive) | 51.1 µM (inactive) | > 84.9 µM (inactive) | > 91.6 | 1.7 µM (inactive) | > 71 µM (inactive) | > 100 µM (inactive) | 52.1 µM (inactive) | > 83.8 µM (inactive) | > 100 µM (inactive) | 40.4 µM (inactive) | > 95.5 µM (inactive) | > 100 µM (inactive) | > 92.7 µM (inactive)
13 | CNS(=O)(=O)NNS(=O)(=O)c1ccc(C)cc1 | > 100 µM (inactive) | > 100 µM (inactive) | > 100 µM (inactive) | > 100 µM (inactive) | > 100 µM (inactive) | > 100 µM (inactive) |  | > 100 µM (inactive) | > 100 µM (inactive) | > 100 µM (inactive) |  | > 100 µM (inactive) | > 100 µM (inactive) | > 100 µM (inactive) | > 100 µM (inactive) | > 100 µM (inactive) | > 100 µM (inactive)
14 | Cc1cccc(C)c1NC(=O)CCCC(=O)CC(=O)/C=C/c1ccccc1 | > 100 µM (inactive) | > 100 µM (inactive) | > 100 µM (inactive) | > 100 µM (inactive) | > 100 µM (inactive) | > 100 µM (inactive) | > 100 | > 100 µM (inactive) | > 100 µM (inactive) | > 100 µM (inactive) | > 100 µM (inactive) | > 100 µM (inactive) | > 100 µM (inactive) | > 100 µM (inactive) |  | > 100 µM (inactive) | > 100 µM (inactive)
